# Measurements taken from patent US20210093715A1, “ANTI-ANGIOGENESIS THERAPY FOR THE TREATMENT OF BREAST CANCER” (Genentech, Inc., priority 2008, published 2021).
# Where two headings read alike, the source gives them in different places.
# Key:
# metastatic breast cancer [1] = conditions: weekly paclitaxel + bevacizumab vs paclitaxel alone; cited from earlier work
# metastatic breast cancer [2] = conditions: docetaxel + bevacizumab (7.5 and 15 mg/kg q3w) vs docetaxel alone; cited from earlier work
# [3] = tested on: previously untreated locally recurrent or metastatic HER2-negative breast cancer
# Description: (§1) The primary objective of the study was to determine the clinical benefit of the addition of bevacizumab to standard chemotherapy regimes for previously untreated metastatic breast cancer, as measured by PFS based on investigator tumor assessment. See, e.g., O'Shaughnessy and Brufsky, (2008), Clinical Breast Cancer, 8(4): 370-373. The trial comprised two study groups that evaluated AVASTIN® with different types of chemotherapies in women who had not previously received chemotherapy for their advanced HER2-negative breast cancer. In the first study group, women received either AVASTIN or placebo in combination with taxane or anthracycline-based chemotherapies. In the second study group, women received either AVASTIN or placebo in combination with capecitabine chemotherapy. The analysis of this example was based on information from 1237 patients. These trials evaluated the efficacy of bevacizumab (AVASTIN®) as therapy for patients previously untreated metastic breast cancer.
# (§2) In the RIBBON1 trial, the following treatment protocol was used:
# (§3) Arm A: bevacizumab 15 mg/kg IV on day 1 of each 21-day cycle and either cohort 1, cohort 2 or cohort 3;
# (§4) Arm B: placebo IV on day 1 of each 21-day cycle and either cohort 1, cohort 2 or cohort 3.
# (§5) Cohort 1: Either of the following taxanes administered every 3 weeks
# (§6) Cohort 2: Any of the following anthracycline-based combination chemotherapies, for subjects previously untreated with anthracyclines, every 3 weeks:
# (§7) Cohort 3: Capecitabine 1000 mg/m^2 oral twice daily on Days 1-14 of each 3-week cycle.
# (§8) The secondary endpoints included objective response rate (ORR), one-year survival rate, overall survival (OS), and PFS based on IRC assessment and safety. OS is defined as the time from randomization until death from any cause. ORR is defined as the percentage of patients who achieved a complete or partial response confirmed ≥28 days after initial documentation of response. One-year survival rate is assessed between treatment arms using the normal approximation method. ORR in patients with measurable disease at baseline is compared using the stratified Mantel-Haenszel χ2 test. Randomization stratification factors are included in all stratified analyses.
# [4] = tested on: previously treated metastatic breast cancer; conditions: capecitabine + bevacizumab vs capecitabine alone; cited from earlier work
# [5] = tested on: previously untreated locally recurrent or metastatic HER2-negative breast cancer; experiment: RIBBON1 randomized phase III trial, efficacy (PFS, ORR, OS) of bevacizumab or placebo with chemotherapy; type: in vivo, human; conditions: for % of deaths: overall survival analysis; for ORR (%) / ORR, number of patients with objective response: patients with measurable disease; for median duration of objective response: among responders; for PFS compared to chemotherapies alone (in words): bevacizumab added to capecitabine, taxane or anthracycline-based chemotherapy, 1st-line
# Description: as §1, §2, §3, §4, §5
# Paclitaxel protein-bound particles (Abraxane®) 260 mg/m^2 IV
# as §6
# FEC: 5-fluorouracil 500 mg/m^2 IV, epirubicin 90-100 mg/m^2 IV and cyclophosphamide 500 mg/m^2 IV on Day 1
# FAC: 5-fluorouracil 500 mg/m^2 IV, doxorubicin 50 mg/m^2 IV and cyclophosphamide 500 mg/m^2 IV on Day 1
# AC: Doxorubicin 50-60 mg/m^2 IV and cyclophosphamide 500-600 mg/m^2 IV on Day 1
# EC: Epirubicin 90-100 mg/m^2 IV and cyclophosphamide 500-600 mg/m^2 IV on Day 1
# as §7
# All subjects had histologically or cytologically confirmed adenocarcinoma of the breast, subjects may have had either measureable (per the Response Evaluation Criteria in Solid Tumors (RECIST)) or non-measureable locally recurrent or metastatic disease. The locally recurrent disease was not amenable to resection with curative intent.
# The trial was conducted worldwide (at least 22 countries) and accrued 1237 subjects/patients (Taxane (T): 307; Anthracycline (Anthra): 315; and Capecitabine (Cap): 615).
# The primary endpoint of the study was progression free survival (PFS), defined as the time from randomization to disease progression or to death, based on investigator assessment. Kaplan-Meier methodology can be used to estimate median PFS for each treatment arm. In certain embodiments, the hazard ratio for PFS will be estimated using a stratified Cox regression model with the same stratification factors used in the stratified log-rank test. Analyses of PFS in each cohort is performed at the two-sided α=0.05 level. Time-to-event data are compared between treatment arms using a stratified log-rank test. The Kaplan-Meier method is used to estimate duration of time-to-event data. The 95% confidence intervals for median time-to-event are computed using the Brookmeyer-Crowley method. The HR for time-to-event data are estimated using a stratified Cox regression model.
# as §8, with “test.” for “test. Randomization stratification factors are included in all stratified analyses.”
# [6] = Cap cohort, BV arm = bevacizumab + capecitabine, PL arm = placebo + capecitabine, investigator assessment
# [7] = Cap cohort, BV or placebo + capecitabine
# [8] = Cap cohort, second PFS figure of b186, assessor not stated (FIG. 2 shows INV and IRC)
# [9] = T/Anthra cohort, BV or placebo + taxane/anthracycline
compound,measurement,setting,value
"BV: recombinant humanized anti-VEGF monoclonal antibody, human IgG1 framework with CDRs from murine antibody A.4.6.1",progression-free survival (PFS),metastatic breast cancer [1],significantly longer
same,progression-free survival (PFS),metastatic breast cancer [2],longer
same,AEs leading to study drug (PL or BV) discontinuation,[3]; Anthra cohort,14.3%
same,SAEs,[3]; Anthra cohort,22.4%
same,AEs leading to study drug (PL or BV) discontinuation,[3]; Cape cohort,11.9%
same,SAEs,[3]; Cape cohort,24.3%
same,AEs leading to death (excludes AEs related to metastatic breast cancer progression),[3]; Taxane cohort,3.4%
same,AEs leading to study drug (PL or BV) discontinuation,[3]; Taxane cohort,24.1%
same,SAEs,[3]; Taxane cohort,41.4%
same,Safety,"[3]; bevacizumab + chemotherapy, all cohorts",consistent with results of prior bevacizumab trials
same,PFS (primary objective),[4],failed to meet its primary objective of improving PFS
same,overall response rate (ORR),[4],higher
same,"mPFS, mo (median PFS)","[5]; Anthra subgroup, BV or placebo + anthracycline-based chemotherapy",9.2 mo
same,PFS HR (95% CI),"[5]; Anthra subgroup, BV vs PL",0.55 (0.40-0.74)
same,PFS Median (months),[5]; [6],8.6 months
same,Median OS (months),[5]; [7],29.0 months
same,PFS HR (95% CI),"[5]; Cap cohort, bevacizumab 15 mg/kg q3w + capecitabine vs placebo + capecitabine, investigator assessment",0.688
same,"OS (HR, 95% CI)","[5]; Cap cohort, bevacizumab + capecitabine vs placebo + capecitabine",0.85 (0.63-1.14)
same,"OS (HR, 95% CI)","[5]; Cap cohort, bevacizumab + capecitabine vs placebo + capecitabine, listed as B",0.847
same,% of deaths,[5]; Cap cohort,30%
same,ORR (%),[5]; [7],(35.4%)
same,PFS,[5]; [8],9.7 months
same,median duration of objective response,[5]; Capecitabine cohort,9.2 months
same,PFS Median (months),"[5]; T/Anthra cohort, BV arm = bevacizumab + taxane/anthracycline, PL arm = placebo + taxane/anthracycline, investigator assessment",9.2 months
same,Median OS (months),[5]; [9],25.2 months
same,PFS HR (95% CI),"[5]; T/Anthra cohort, bevacizumab 15 mg/kg q3w + taxane/anthracycline vs placebo + taxane/anthracycline, investigator assessment",0.644
same,"OS (HR, 95% CI)","[5]; T/Anthra cohort, bevacizumab + taxane/anthracycline vs placebo + taxane/anthracycline",1.03 (0.77-1.38)
same,"OS (HR, 95% CI)","[5]; T/Anthra cohort, bevacizumab + taxane/anthracycline vs placebo + taxane/anthracycline, listed as B",1.032
same,% of deaths,[5]; T/Anthra cohort,34%
same,ORR (%),[5]; [9],(51.3%)
same,"ORR, number of patients with objective response",[5]; [9],177
same,PFS,"[5]; T/Anthra cohort, second PFS figure of b186, assessor not stated (FIG. 3 shows INV and IRC)",10.7 months
same,"mPFS, mo (median PFS)","[5]; Taxane subgroup, BV or placebo + docetaxel or Abraxane",9.2 mo
same,PFS HR (95% CI),"[5]; Taxane subgroup, BV vs PL",0.75 (0.56-1.01)
same,PFS compared to chemotherapies alone (in words),[5],statistically-significant improvement in PFS
same,PFS compared to chemotherapies alone (in words),[5]; listed as AVASTIN®,increased the time women lived without their disease advancing
same,median duration of objective response,[5]; taxane/anthracycline cohort,8.3 months
"CCCCCOC(=O)Nc1nc(=O)n([C@@H]2O[C@H](C)[C@@H](O)[C@H]2O)cc1F [Cap, capecitabine, reference compound]",AEs leading to death (excludes AEs related to metastatic breast cancer progression),[3]; Cape cohort,2.5%
same,AEs leading to study drug (PL or BV) discontinuation,"[3]; female, human, in vivo",11.9%
same,SAEs,"[3]; female, human, in vivo",18.9%
same,Selected AEs (previously shown to be associated with bevacizumab),"[3]; female, human, in vivo",9.0%
same,1-yr survival rate (%),[5]; Cap cohort,74%
same,PFS Median (months),[5]; [6],5.7 months
same,Median OS (months),[5]; [7],21.2 months
same,% of deaths,[5]; Cap cohort,35%
same,ORR (%),[5]; [7],(23.6%)
same,"ORR, number of patients with objective response",[5]; [7],38
same,PFS,[5]; [8],6.2 months
same,median duration of objective response,[5]; Capecitabine cohort,7.2 months
